# Measurements published in patent US5679638A, “Method for treating a tumor with a chemotherapeutic agent” (Biopure Corporation, priority 1993, dated 1997).
# Columns and labels:
# [1] = system: bone marrow granulocyte-macrophage colony forming units (CFU-GM); experiment: Bone marrow toxicity, CFU-GM colony forming assay; type: in vivo, mouse; conditions: drug + UPHS vs drug alone; PAM across entire dosage range
# Method: The procedures and materials of Example I were employed, except as noted. In this Example, tumors were allowed to grow to approximately 100 mm^3 in volume, which took about one week after tumor cell implantation. At this time, 0.3 ml of UPHS was injected via the tail vein. Immediately afterward, PAM was administered by intraperitoneal injection. The animals were then allowed to breathe air or were placed in a circulating atmosphere of carbogen for 6 hours and then removed to air. The mice were sacrificed 24 hours after treatment to allow for full expression of drug cytotoxicity and repair of potentially lethal damage. The tumors were excised under sterile conditions and single cell suspensions were prepared for a colony forming assay. […] One week later, the plates were stained with crystal violet and colonies of more than 50 cells were counted.
# Bone marrow toxicity was determined as follows. […] Colonies of at least 50 cells were scored on an acculite colony counter (Fisher, Springfield, N.J.). The results from three experiments, in which each group was measured in triplicate, were averaged. […]
# FSaIIC tumor cells = experiment: FSaIIC tumor excision / colony forming assay (tumor cell killing); type: in vivo, mouse; conditions: for FSaIIC cell killing by drug, dose dependence: drug alone, increasing dose; for Enhancement of tumor cell killing by UPHS at higher drug doses: higher doses of drug + UPHS vs drug alone
# Method: The procedures and materials of Example I were employed, except as noted. In this Example, tumors were allowed to grow to approximately 100 mm^3 in volume, which took about one week after tumor cell implantation. At this time, 0.3 ml of UPHS was injected via the tail vein. Immediately afterward, PAM was administered by intraperitoneal injection. The animals were then allowed to breathe air or were placed in a circulating atmosphere of carbogen for 6 hours and then removed to air. The mice were sacrificed 24 hours after treatment to allow for full expression of drug cytotoxicity and repair of potentially lethal damage. The tumors were excised under sterile conditions and single cell suspensions were prepared for a colony forming assay. See Teicher, B. A. et al., "Approaches to Defining the Mechanism of Fluosol-DA 20%/Carbogen Enhancement of Melphalan Antitumor Activity", Cancer Res. 47:513-518 (1987); Teicher, B. A. et al., "Differential Enhancement of Melphalan Cytotoxicity in Tumor and Normal Tissue by Fluosol-DA and Oxygen Breathing", Int. J. Cancer 36:585-589 (1985); Teicher, B. A. et al., "Effects of Various Oxygenation Conditions on the Enhancement by Fluosol-DA of Melphalan Antitumor Activity", Cancer Res. 47:5036-5041 (1987); Teicher, B. A. and S. A. Holden, "A Survey of the Effect of Adding Fluosol-DA 20%/O2 to Treatment with Various Chemotherapeutic Agents", Cancer Treat. Rep. 71:173-177 (1987), Teicher, B. A. et al., "Effect of Various Oxygenation Conditions and Fluosol-DA on Cancer Chemotherapeutic Agents", Biomat., Art. Cells and Art. Organs 16:533-546 (1988). One week later, the plates were stained with crystal violet and colonies of more than 50 cells were counted.
# The result for the tumor excision assays and bone marrow toxicity tests with PAM are plotted in FIG. 1 wherein the surviving fraction +SE of cells from the treated groups are compared to untreated controls.
# The procedures and materials of Example II were employed except that CTX was administered instead of PAM.
# FSaIIC fibrosarcoma = FSaIIC fibrosarcoma tumor growth delay; type: in vivo, mouse (male C3H/FeJ mice); conditions: PAM 10 mg/kg + Fluosol-DA, carbogen 1 hour
SMILES,Increase in bone marrow CFU-GM killing / toxicity by addition of UPHS [1],Increase in killing of FSaIIC cells by addition of UPHS (FSaIIC tumor cells; CTX 100 mg/kg + UPHS vs CTX alone) [fold],Greater kill of FSaIIC tumor cells with combined treatment (FSaIIC tumor cells; CTX 500 mg/kg (highest dose) + UPHS vs CTX alone),"FSaIIC cell killing by drug, dose dependence (FSaIIC tumor cells)",Enhancement of tumor cell killing by UPHS at higher drug doses (FSaIIC tumor cells),"Tumor growth delay, with Fluosol-DA and carbogen (FSaIIC fibrosarcoma)",Increase in tumor cell killing by addition of UPHS (FSaIIC tumor cells; PAM 10 mg/kg + UPHS vs PAM alone) [fold]
"O=P1(N(CCCl)CCCl)NCCCO1 (stereo not shown) [CTX, Cyclophosphamide]",2-3 fold,~20,about 9 fold,killed increasing numbers of FSaIIC cells with increasing doses,the differential between tumor cell kill by CTX alone and CTX plus UPHS decreased as the dose of CTX was increased,–,–
"N[C@@H](Cc1ccc(N(CCCl)CCCl)cc1)C(=O)O [PAM, Melphalan]",3 fold,–,–,killed FSaIIC cells in a log-linear manner with increasing dose,the enhancement in tumor cell killing with the combination treatment disappeared,about 9.5 days,~10
